≈ marks a conversion by molar mass, not a printed value. Like-named read-outs stand apart in the source and are kept apart here.
Columns and labels:
[1] = tested on: Enterococcus faecium ATCC 35667; parameters: method as in doi:10.1002/ffj.3238; conditions: data presented by the authors before; cited from earlier work
[2] = tested on: Klebsiella pneumoniae ATCC 700603; parameters: method as in doi:10.1002/ffj.3238; conditions: data presented by the authors before; cited from earlier work
[3] = tested on: Enterococcus faecalis ATCC 51299; parameters: method as in doi:10.1002/ffj.3238; conditions: data presented by the authors before; cited from earlier work
MTT viability, HFIG = type: cell-based, human; conditions: human, HFIG (HFIB-G) gingival fibroblasts, 1000 µM (IC50 exceeded 1000 µM), read-out: viability ± standard deviation at 1000 µM
Procedure, shortened: (§1)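 Viability is given as the optical density ratio of treated to control wells after 24 h compound treatment at 37 °C. Formazan from a 4 h MTT incubation is solubilised with SDS/DMF and measured at 570 nm.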

[4] = tested on: Staphylococcus aureus ATCC 43300; parameters: method as in doi:10.1002/ffj.3238; conditions: data presented by the authors before; cited from earlier work
MTT viability, MEWO = type: cell-based, human; conditions: human, MEWO malignant melanoma cells, 1000 µM (IC50 exceeded 1000 µM), read-out: viability ± standard deviation at 1000 µM
Procedure, shortened: as §1

[5] = tested on: Acinetobacter baumannii ATCC 19606; parameters: method as in doi:10.1002/ffj.3238; conditions: data presented by the authors before; cited from earlier work
MTT viability, HaCaT = type: cell-based, human; conditions: human, HaCaT keratinocytes, 1000 µM (IC50 exceeded 1000 µM), read-out: viability ± standard deviation at 1000 µM
Procedure, shortened: as §1

MTT viability, IEC6 = type: cell-based; conditions: rat, IEC-6 small intestine epithelial cells, 1000 µM (IC50 exceeded 1000 µM), read-out: viability ± standard deviation at 1000 µM
Procedure, shortened: as §1

MTT viability, HT29 = type: cell-based, human; conditions: human, HT29 colorectal adenocarcinoma cells, 1000 µM (IC50 exceeded 1000 µM), read-out: viability ± standard deviation at 1000 µM
Procedure, shortened: as §1

MTT viability, HL-60 = type: cell-based, human; conditions: human, HL-60 promyelocytic leukaemia cells, HL-60, MTT, 1000 µM (IC50 exceeded 1000 µM), read-out: viability ± standard deviation at 1000 µM
Procedure, shortened: as §1

[6] = tested on: Escherichia coli ATCC 25922; parameters: method as in doi:10.1002/ffj.3238; conditions: data presented by the authors before; cited from earlier work
[7] = tested on: non-small cell lung cancer cells H460; parameters: method as in PMID 12753732; conditions: cited from earlier work
[8] = tested on: Mycobacterium smegmatis mc^2 155 ATCC 700084; parameters: method as in PMID 21042264; conditions: micro-dilution, NCCLS guidelines; cited from earlier work
Fibroblasts HFIG = assay: MTT viability, HFIG; type: cell-based, human; conditions: Homo sapiens, Fibroblast, 24 h, range 10–1000 µM, read-out: half maximal inhibitory concentration (IC50), interpolated
Procedure, shortened: as §1

[9] = tested on: Enterococcus faecalis ATCC 51299; assay: Micro-dilution broth MIC, Enterococcus faecalis; type: cell-based; conditions: ATCC51299, 24 h, 37 °C, read-out: Minimum Inhibitory Concentrations MIC
Procedure, shortened: (§2)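 Micro-dilution in Mueller-Hinton broth, with compounds added from an ethanol stock to give 10–80 µg/mL. Inocula were standardised to 0.5 McFarland (1.5 × 10^8 CFU), and a broth-only well served as the growth control. Strains were precultured aerobically on Columbia agar at 37 °C for 24 h.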

[10] = tested on: Escherichia coli ATCC 25922; assay: Micro-dilution broth MIC, Escherichia coli; type: cell-based; conditions: ATCC25922, 24 h, 37 °C, read-out: Minimum Inhibitory Concentrations MIC
Procedure, shortened: as §2

Malignant Melanoma MEWO = assay: MTT viability, MEWO; type: cell-based, human; conditions: Homo sapiens, 24 h, range 10–1000 µM, read-out: half maximal inhibitory concentration (IC50), interpolated
Procedure, shortened: as §1

[11] = tested on: Staphylococcus aureus FDA209P; parameters: method as in PMID 19078849; conditions: 1 × 10^5 CFU, 48 h with shaking, turbidimetric; cited from earlier work
Keratinocytes HaCaT = assay: MTT viability, HaCaT; type: cell-based, human; conditions: Homo sapiens, 24 h, range 10–1000 µM, read-out: half maximal inhibitory concentration (IC50), interpolated
Procedure, shortened: as §1

[12] = tested on: Staphylococcus aureus ATCC 43300; assay: Micro-dilution broth MIC, Staphylococcus aureus; type: cell-based; conditions: ATCC43300, 24 h, 37 °C, read-out: Minimum Inhibitory Concentrations MIC
Procedure, shortened: as §2

[13] = tested on: non-small cell lung cancer cells A549; parameters: method as in PMID 12753732; conditions: cited from earlier work
[14] = tested on: Klebsiella pneumoniae ATCC 700603; assay: Micro-dilution broth MIC, Klebsiella pneumoniae; type: cell-based; conditions: ATCC700603, 24 h, 37 °C, read-out: Minimum Inhibitory Concentrations MIC
Procedure, shortened: as §2

[15] = tested on: Colorectal Adenocarcinoma HT29; assay: MTT viability, HT29; type: cell-based, human; conditions: Homo sapiens, HT-29, 24 h, range 10–1000 µM, read-out: half maximal inhibitory concentration (IC50), interpolated
Procedure, shortened: as §1

[16] = tested on: Promyelocytic Leukaemia HL-60; assay: MTT viability, HL-60; type: cell-based, human; conditions: HL-60, MTT, range 10–1000 µM, read-out: half maximal inhibitory concentration (IC50), interpolated
Procedure, shortened: as §1

[17] = tested on: Enterococcus faecium ATCC 35667; assay: Micro-dilution broth MIC, Enterococcus faecium; type: cell-based; conditions: ATCC35667, 24 h, 37 °C, read-out: Minimum Inhibitory Concentrations MIC
Procedure, shortened: as §2

[18] = tested on: Acinetobacter baumannii ATCC 19606; assay: Micro-dilution broth MIC, Acinetobacter baumannii; type: cell-based; conditions: ATCC19606, 24 h, 37 °C, read-out: Minimum Inhibitory Concentrations MIC
Procedure, shortened: as §2

[19] = tested on: colon carcinoma HCT-8 cells; parameters: method as in PMID 19084293; conditions: cited from earlier work
[20] = tested on: human melanoma MDA/MB‑435 cell lines; parameters: method as in PMID 19084293; conditions: cited from earlier work

IC50 ([16]; Homo sapiens, HL-60, 24 h) [µM]	Structure (SMILES)	Minimum Inhibitory Concentrations MIC [1] [µg/mL]	Minimum Inhibitory Concentrations MIC [2] [µg/mL]	Minimum Inhibitory Concentrations MIC [3] [µg/mL]	viability at 24 h, 1000 µM (MTT viability, HFIG) [%]	Minimum Inhibitory Concentrations MIC [4] [µg/mL]	viability at 24 h, 1000 µM (MTT viability, MEWO) [%]	Minimum Inhibitory Concentrations MIC [5] [µg/mL]	viability at 24 h, 1000 µM (MTT viability, HaCaT) [%]	viability at 24 h, 1000 µM (MTT viability, IEC6) [%]	viability at 24 h, 1000 µM (MTT viability, HT29) [%]	viability at 24 h, 1000 µM (MTT viability, HL-60) [%]	Minimum Inhibitory Concentrations MIC [6] [µg/mL]	also measured
–	CC(=O)CCC=C(C)C(C)CCCC(C)C (stereo not shown) [Compound 8]	28	18	26	81	38	94	22	90	97	111	72	18	–
–	CC(=O)CCC=C(C)C(C)CCC=C(C)C (stereo not shown) [Compound 6]	16	14	18	83	26	102	12	118	95	102	67	14	–
–	CC(=O)CCC=C(C)CC(C)CCC=C(C)C (stereo not shown) [Compound 9]	14	18	18	85	28	83	16	89	76	107	69	28	–
–	CC(=O)CCC=C(C)CCC(C)CCC=C(C)C (stereo not shown) [Compound 10]	18	18	26	98	46	93	16	112	78	103	62	32	–
–	CC(=O)CCC=CC(C)CCC=C(C)C (stereo not shown) [Compound 7]	18	16	16	92	26	99	14	101	82	98	67	16	–
54	CC(C)=CCC/C(C)=C/CC/C(C)=C/CO [Farnesol (4), farnesol, reference compound]	–	–	–	–	–	–	–	–	58	–	–	–	IC50 [7]: ~4.5 µM; MIC [8]: 64 µg/mL (≈ 288 µM); IC50 (Fibroblasts HFIG): 350 µM; MIC [9]: 18 µg/mL (≈ 80.9 µM); MIC [10]: 28 µg/mL (≈ 126 µM); IC50 (Malignant Melanoma MEWO): 378 µM; concentration at which active [11]: ≥ 10 µg/mL; IC50 (Keratinocytes HaCaT): 489 µM; MIC [12]: 26 µg/mL (≈ 117 µM); IC50 [13]: ~4.5 µM; MIC [14]: 16 µg/mL (≈ 72 µM); IC50 [15]: 930 µM; MIC [17]: 16 µg/mL (≈ 72 µM); MIC [18]: 18 µg/mL (≈ 80.9 µM)
~135	C=CC(C)(O)CC/C=C(\C)CCC=C(C)C (stereo not shown) [Nerolidol (2), nerolidol, reference compound]	32	16	38	75	48	99	26	102 ± 5	76	103	–	46	toxicity [19]: no toxicity; toxicity [20]: no toxicity
–	CC(=O)CCC=C(C)C(C)CC(C)CCC=C(C)C (stereo not shown) [Compound 11]	18	28	22	102	26	112	14	100	81	92	59	28	–
~1000	C=CC(C)(O)CCC(C)CCC=C(C)C (stereo not shown) [Compound 16]	36	24	38	106	48	100	22	89	113	102	–	32	IC50 ([16]; 24 h): 950 µM

Reference: PMC6272674, “Selected Compounds Structurally Related to Acyclic Sesquiterpenoids and Their Antibacterial and Cytotoxic Activity” (Molecules, 2015)
